Laboratory results from patent US11779613B2, “Compositions comprising a bacterial strain of the genus Megasphera and uses thereof” (CJ BIOSCIENCE, INC., priority 2017, dated 2023).

Tests used:
histone deacetylase [1] = experiment: Histone deacetylase activity in HT-29 whole cells; type: cell-based; conditions: for total HDAC activity, pure substances: different concentrations, whole HT-29 cells and HT-29 cell lysate, FIG. 16B
Protocol: The cell line HT-29 was used because histone deacetylase is present.
Cell free supernatants of stationary phase bacterial cultures were isolated by centrifugation and filtering in a 0.22 uM filter. HT-29 cells were used 3 days' post confluence and stepped down in 1 mL DTS 24 hours prior to commencement of the experiment. The HT-29 cells were challenged with 10% cell free supernatant diluted in DTS and was is left to incubate for 48 hours. […] extraction kit and samples were snap frozen prior to HDAC activity measurement. HDAC activity was assessed fluorometrically using the Sigma Aldrich (UK) kit.
(§1) Pure cultures of bacteria were grown anaerobically in YCFA broth until they reached their stationary growth phase. Cultures were centrifuged at 5,000×g for 5 minutes and the cell-free supernatant (CFS) was filtered using a […] (Millipore, UK). 1 mL aliquots of the CFS were stored at −80° C. until use. Sodium butyrate, hexanoic and valeric acid were obtained from Sigma Aldrich (UK) and suspensions were prepared in YCFA broth.
(§2) To investigate which metabolites were responsible for the strain-induced HDAC inhibition, different concentrations of hexanoic acid, valeric acid and sodium butyrate were measured for their HDAC inhibition on whole HT-29 cells and on HT-29 cell lysate.

[2] = test system: SH-SY5Y neuroblastoma cells; experiment: Cell viability / neuroprotection of SH-SY5Y neuroblastoma cells with or without MPP (CCK-8); type: cell-based, human; conditions: compared to YCFA-MPP+ treated sample, FIG. 15
Protocol: SH-SY5Y neuroblastoma cells were purchased from ECCACC (Cat. no: 94030304) and were grown in MEM (Sigma Aldrich, cat n. M2279) supplemented with Nutrient Mixture F-12 Ham (Sigma Aldrich, cat n. N4888).
Once grown the SH-SY5Y neuroblastoma cells were plated on 96-well plate at 11,000 cells/well and incubated for 2 days. The cells were then transferred to differentiation medium (which contains FBS at 1%) and 10 uM retinoic acid (Sigma Aldrich, cat. n. R2625-100MG). Differentiation medium was replaced every other day and cells were harvested at 7 day of differentiation. Cells were pre-treated with or without MPP (Sigma Aldrich, cat. n. D048-1G) for 8 hours. Subsequently, cells were treated with 10% bacterial supernatant and incubated overnight. Cell viability was measured by using CCK-8 reagent (Sigma Aldrich, Cell Counting Kit—8, cat. n. 96992-3000TESTS-F) and read at 450 nm wavelength.
RA-differentiated SHSY-5Y cells were treated with MPP+, the active metabolite of MPTP, a chemical widely used to mimic in vitro and in vivo some of the features of PD pathology. Cell viability was measured as the rate of mitochondria respiration (FIG. 15).

histone deacetylase [3] = experiment: Histone deacetylase activity in HT-29 cell lysate; type: biochemical; conditions: FIG. 16A/16B
Protocol: as §1, §2

CCCCC(=O)O [valeric acid]
total HDAC activity, pure substances (histone deacetylase [1]): significant HDAC inhibition
total HDAC activity, pure substances (histone deacetylase [1]; listed as Valeric acid): inhibited total HDAC activity

O=c1c(O)c(-c2ccc(O)c(O)c2)oc2cc(O)cc(O)c12 [quercetin, Quercetin]
protection from MPP+ [2]: about 20%

CCCCCC(=O)O [hexanoic acid]
total HDAC activity, pure substances (histone deacetylase [1]): did not show significant inhibitory activity

CCCC(=O)[O-].[Na+] [sodium butyrate, Sodium butyrate]
HDAC inhibition, HT29 whole cells (histone deacetylase [1]; FIG. 16A/16B): significant (P<0.05) inhibition
total HDAC activity, pure substances (histone deacetylase [1]): significant HDAC inhibition
HDAC inhibition, HT29 cell lysates (histone deacetylase [3]): significant (P<0.05) inhibition
